{
  "source": "patent US20240360091A1",
  "about": "“GLUN2B-SUBUNIT SELECTIVE ANTAGONISTS OF THE N-METHYL-D-ASPARTATE RECEPTORS WITH ENHANCED POTENCY AT ACIDIC PH” (Emory University, priority 2021, published 2024)",
  "key": {"human GluN1/GluN2B": {"target": "human GluN1/GluN2B (Homo sapiens (Human), UniProt Q05586+Q13224)", "sequence (Q13224 27-1484, other chains not shown)": "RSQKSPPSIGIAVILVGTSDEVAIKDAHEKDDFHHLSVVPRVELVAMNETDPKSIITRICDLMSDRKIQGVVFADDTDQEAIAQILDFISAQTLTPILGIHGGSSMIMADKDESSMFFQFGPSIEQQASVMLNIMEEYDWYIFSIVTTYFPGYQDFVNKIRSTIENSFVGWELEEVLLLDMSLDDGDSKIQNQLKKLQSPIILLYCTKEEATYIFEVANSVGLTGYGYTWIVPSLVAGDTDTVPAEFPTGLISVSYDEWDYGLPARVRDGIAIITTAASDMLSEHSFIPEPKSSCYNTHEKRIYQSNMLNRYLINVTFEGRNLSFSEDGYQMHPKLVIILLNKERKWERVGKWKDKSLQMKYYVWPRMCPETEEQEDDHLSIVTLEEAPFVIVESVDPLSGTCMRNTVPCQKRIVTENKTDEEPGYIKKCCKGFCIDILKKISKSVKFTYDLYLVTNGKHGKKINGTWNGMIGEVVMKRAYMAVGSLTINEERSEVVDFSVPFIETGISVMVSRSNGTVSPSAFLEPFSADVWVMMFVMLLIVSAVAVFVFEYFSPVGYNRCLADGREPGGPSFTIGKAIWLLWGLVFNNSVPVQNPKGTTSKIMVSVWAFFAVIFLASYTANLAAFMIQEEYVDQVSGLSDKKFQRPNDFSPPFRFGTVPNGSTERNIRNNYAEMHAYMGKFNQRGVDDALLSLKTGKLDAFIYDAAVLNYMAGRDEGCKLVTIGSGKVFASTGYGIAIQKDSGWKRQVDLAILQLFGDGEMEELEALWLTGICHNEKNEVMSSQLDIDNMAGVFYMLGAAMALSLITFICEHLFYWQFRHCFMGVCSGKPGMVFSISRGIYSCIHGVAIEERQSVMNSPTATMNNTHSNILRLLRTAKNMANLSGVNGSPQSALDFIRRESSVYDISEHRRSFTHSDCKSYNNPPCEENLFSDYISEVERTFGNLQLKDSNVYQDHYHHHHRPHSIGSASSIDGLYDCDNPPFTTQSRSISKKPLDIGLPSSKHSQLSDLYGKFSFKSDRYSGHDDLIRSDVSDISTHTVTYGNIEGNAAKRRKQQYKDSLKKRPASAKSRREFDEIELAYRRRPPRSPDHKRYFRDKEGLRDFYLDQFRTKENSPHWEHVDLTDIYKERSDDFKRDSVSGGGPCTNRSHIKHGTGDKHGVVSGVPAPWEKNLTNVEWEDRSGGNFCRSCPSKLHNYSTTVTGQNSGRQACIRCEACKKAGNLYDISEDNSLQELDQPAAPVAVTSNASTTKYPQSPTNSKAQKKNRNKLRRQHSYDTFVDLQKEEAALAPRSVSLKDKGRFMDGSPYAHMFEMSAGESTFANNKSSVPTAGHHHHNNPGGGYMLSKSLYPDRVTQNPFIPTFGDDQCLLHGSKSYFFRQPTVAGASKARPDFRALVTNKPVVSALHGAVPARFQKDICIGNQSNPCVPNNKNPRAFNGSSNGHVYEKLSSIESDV", "assay": "Two electrode voltage-clamp recordings from Xenopus laevis oocytes, GluN2B potency and pH dependence", "assay_type": "cell-based", "procedure": "Two Electrode Voltage-Clamp Recordings from Xenopus laevis Oocytes\nStage V-VI Xenopus laevis unfertilized oocytes were purchased from Ecocyte (Austin, Texas) and injected with 5 ng of GluN1 and 10 ng of GluN2B cRNAs. The cDNAs for human GluN1 and GluN2B, encoding NCBI reference sequences NM_007327.3 and NM_000834.3, respectively, were linearized and cRNAs made as previously described (Traynelis et al., J Neurosci, 1998, 18(16):6163-75). After injection, the oocytes were incubated in Barth's culture solution (88 mM NaCl, 1 mM KCl, 2.4 mM NaHCO3, 10 mM HEPES, 0.82 mM MgSO4, 0.33 mM Ca(NO3)2, 0.41 mM CaCl2), 10 U/mL PenStrep, and 0.1 mg/mL gentamycin, pH 7.4) at 18° C. Two electrode voltage-clamp (TEVC) recordings were made at 22-23° C., 2-7 days after the injection, using Warner OC725C amplifiers (VHOLD=−40 mV). Briefly, the oocytes were perfused in a recording solution (90 mM NaCl, 1 mM KCl, 10 mM HEPES, 0.01 mM EDTA, and 0.5 mM BaCl2) adjusted to either pH 7.6 or 6.9 by addition of NaOH or HCl, respectively (pH 6.9 solutions were prepared by addition of HCl to pH 7.6 solutions to maintain an equal concentration of Na^+ ions in both solutions). Concentration-response curves of the compounds were obtained by application of increasing concentrations of each individual compound until steady state conditions were obtained, in the presence of saturating agonist concentrations (i.e., 100 μM glutamate and 30 μM glycine). In general, oocyte recordings were made from 4-10 oocytes per experiment (i.e., oocyte injection cycle) from ≥two experiments. The concentration-response relationship for each oocyte was fit by equation (1),\nPercent Response=(100−minimum)/(1+([concentration]/IC50)^nH)+minimum (1)\nwhere minimum is the residual response in saturating concentration of each individual compound (constrained to be ≥0), and IC50 is the concentration of compound that causes half-maximal inhibition, and nH is the Hill slope."}, "5-HT2A": {"target": "5-HT2A (Homo sapiens (Human), UniProt P28223)", "sequence (P28223 whole entry)": "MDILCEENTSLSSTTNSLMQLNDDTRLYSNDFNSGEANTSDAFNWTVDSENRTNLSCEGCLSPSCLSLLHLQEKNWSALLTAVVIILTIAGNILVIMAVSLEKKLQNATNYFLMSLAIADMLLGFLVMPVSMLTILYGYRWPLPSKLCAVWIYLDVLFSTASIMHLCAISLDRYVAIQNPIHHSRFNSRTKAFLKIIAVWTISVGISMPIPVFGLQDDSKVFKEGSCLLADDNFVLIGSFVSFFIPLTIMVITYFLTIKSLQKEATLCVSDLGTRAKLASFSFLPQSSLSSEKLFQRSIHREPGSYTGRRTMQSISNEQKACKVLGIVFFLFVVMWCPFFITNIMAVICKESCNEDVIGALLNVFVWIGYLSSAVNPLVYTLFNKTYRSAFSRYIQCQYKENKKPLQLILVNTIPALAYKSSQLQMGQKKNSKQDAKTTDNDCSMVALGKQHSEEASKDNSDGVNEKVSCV", "assay": "Functional agonism/antagonism, IP1 HTRF in HEK293 cells", "assay_type": "cell-based", "procedure": "These receptor targets include the 5-HT2A receptor, the functional study of which was performed at pH 7.4 (Porter, et al., Br J Pharmacol, 1999, 128:13-20; CEREP, France). […] Separate wells stimulated with 10 μM serotonin served as a positive control. […] The cells were stimulated with 100 nM serotonin."}, "GluN2D": {"target": "GluN2D (Homo sapiens (Human), UniProt O15399)", "sequence (O15399 28-1336, other chains not shown)": "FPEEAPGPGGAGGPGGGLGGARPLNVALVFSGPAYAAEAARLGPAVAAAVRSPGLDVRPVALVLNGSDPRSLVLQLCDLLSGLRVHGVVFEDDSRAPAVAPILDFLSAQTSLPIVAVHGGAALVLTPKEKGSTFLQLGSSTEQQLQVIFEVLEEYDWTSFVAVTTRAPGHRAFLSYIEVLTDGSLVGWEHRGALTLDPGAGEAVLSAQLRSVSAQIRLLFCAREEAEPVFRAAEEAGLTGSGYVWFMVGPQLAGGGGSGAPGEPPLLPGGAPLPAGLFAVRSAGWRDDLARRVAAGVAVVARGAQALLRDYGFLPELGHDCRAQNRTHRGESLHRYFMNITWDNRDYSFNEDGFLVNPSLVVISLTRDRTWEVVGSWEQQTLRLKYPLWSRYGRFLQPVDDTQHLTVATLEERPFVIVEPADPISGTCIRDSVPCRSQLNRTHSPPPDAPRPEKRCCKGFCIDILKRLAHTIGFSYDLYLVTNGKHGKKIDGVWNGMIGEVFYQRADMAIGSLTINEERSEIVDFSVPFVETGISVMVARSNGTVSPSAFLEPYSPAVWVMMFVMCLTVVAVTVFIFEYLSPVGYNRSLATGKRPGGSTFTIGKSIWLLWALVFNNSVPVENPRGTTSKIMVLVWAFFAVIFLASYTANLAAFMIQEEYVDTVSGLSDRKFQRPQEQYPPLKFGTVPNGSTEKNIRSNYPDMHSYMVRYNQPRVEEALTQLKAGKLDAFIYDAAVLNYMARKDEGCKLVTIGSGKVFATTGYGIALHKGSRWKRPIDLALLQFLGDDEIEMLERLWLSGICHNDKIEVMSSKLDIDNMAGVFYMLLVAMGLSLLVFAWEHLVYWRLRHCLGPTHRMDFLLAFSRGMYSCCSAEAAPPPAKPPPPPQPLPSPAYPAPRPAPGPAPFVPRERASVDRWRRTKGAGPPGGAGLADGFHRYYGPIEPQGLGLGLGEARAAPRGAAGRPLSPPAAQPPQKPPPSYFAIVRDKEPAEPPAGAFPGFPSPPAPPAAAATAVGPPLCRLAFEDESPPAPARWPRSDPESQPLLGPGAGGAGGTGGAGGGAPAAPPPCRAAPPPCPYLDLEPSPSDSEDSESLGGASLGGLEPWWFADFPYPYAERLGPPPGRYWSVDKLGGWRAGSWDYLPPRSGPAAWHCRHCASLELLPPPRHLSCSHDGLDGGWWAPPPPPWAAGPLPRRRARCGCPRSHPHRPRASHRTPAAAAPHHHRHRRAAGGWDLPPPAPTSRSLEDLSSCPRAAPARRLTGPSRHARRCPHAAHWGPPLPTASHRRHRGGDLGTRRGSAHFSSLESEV", "assay": "Two electrode voltage-clamp recordings, single concentration, GluN2D", "assay_type": "cell-based", "settings": "pH 6.9"}, "CYP2D6": {"target": "CYP2D6 (Homo sapiens (Human), UniProt P10635)", "sequence (P10635 whole entry, canonical isoform)": "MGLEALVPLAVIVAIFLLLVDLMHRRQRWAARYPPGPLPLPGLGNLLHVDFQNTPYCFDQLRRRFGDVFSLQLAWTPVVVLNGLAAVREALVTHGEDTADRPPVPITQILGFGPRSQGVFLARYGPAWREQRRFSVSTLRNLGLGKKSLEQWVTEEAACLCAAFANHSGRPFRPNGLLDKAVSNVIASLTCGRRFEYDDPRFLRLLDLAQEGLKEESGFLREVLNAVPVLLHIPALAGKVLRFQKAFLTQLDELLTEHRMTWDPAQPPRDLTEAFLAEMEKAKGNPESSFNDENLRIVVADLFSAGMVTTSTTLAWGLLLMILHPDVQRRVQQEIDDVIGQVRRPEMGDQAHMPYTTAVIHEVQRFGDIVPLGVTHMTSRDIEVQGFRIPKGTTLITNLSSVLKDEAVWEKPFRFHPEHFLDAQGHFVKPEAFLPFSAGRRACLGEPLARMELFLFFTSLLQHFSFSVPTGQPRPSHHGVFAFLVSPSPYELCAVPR", "assay": "Cytochrome P450 inhibition (Vivid CYP blue screening kit), CYP2D6", "assay_type": "in vitro ADME", "settings": "1 μM", "procedure": "Inhibition of CYP2D6 and CYP3A4 was accomplished using recombinant human isoforms and a Vivid CYP blue screening kit (Invitrogen, USA) by incubating 2-fold serial dilutions (9 samples) of the test compound with kit reagents and reaction buffer according to the manufacturer's methods in a 96-well plate. The plate was then incubated at room temperature for 30 min before fluorescence was measured with a plate reader. For these studies, reference standards ketoconazole (CYP3A4) and quinidine (CYP2D6) were used as controls."}, "[1]": {"assay": "Plasma protein binding, rapid equilibrium dialysis, mouse", "assay_type": "in vitro ADME", "settings": "n=2", "procedure": "Plasma protein binding was performed with a rapid equilibrium dialysis (RED) device containing dialysis membrane with a molecular weight cut-off of 8,000 Daltons according to the manufacturer's instructions (ThermoFisher, USA). The plasma samples (pH 7.4) and the test compound solution (1 or 5 μM) or reference standards (Warfarin and Propranolol, 10 μM) were combined (DMSO final conc 0.1%). 300 μL of this spiked plasma sample was added to the sample chamber, and 500 μL of blank PBS buffer (pH 7.4) was added into the buffer chamber. The RED device was sealed with adhesive film and then incubated at 37° C. with shaking at 300 rpm for 4 h. Following incubation, an aliquot (50 μL) was removed from each well (spiked plasma and buffer side) and diluted with equal volume of the corresponding opposite matrix (blank buffer or blank plasma) to nullify the matrix effect, and then extracted for analysis by LC-MS/MS. The amount of free material was determined by:\n% Free=(LC-MS/MS peak area of test compound in buffer side/LC-MS/MS peak area of test compound in plasma side)×100%"}, "GluN2C": {"target": "GluN2C (Homo sapiens (Human), UniProt Q14957)", "sequence (Q14957 20-1233, other chains not shown)": "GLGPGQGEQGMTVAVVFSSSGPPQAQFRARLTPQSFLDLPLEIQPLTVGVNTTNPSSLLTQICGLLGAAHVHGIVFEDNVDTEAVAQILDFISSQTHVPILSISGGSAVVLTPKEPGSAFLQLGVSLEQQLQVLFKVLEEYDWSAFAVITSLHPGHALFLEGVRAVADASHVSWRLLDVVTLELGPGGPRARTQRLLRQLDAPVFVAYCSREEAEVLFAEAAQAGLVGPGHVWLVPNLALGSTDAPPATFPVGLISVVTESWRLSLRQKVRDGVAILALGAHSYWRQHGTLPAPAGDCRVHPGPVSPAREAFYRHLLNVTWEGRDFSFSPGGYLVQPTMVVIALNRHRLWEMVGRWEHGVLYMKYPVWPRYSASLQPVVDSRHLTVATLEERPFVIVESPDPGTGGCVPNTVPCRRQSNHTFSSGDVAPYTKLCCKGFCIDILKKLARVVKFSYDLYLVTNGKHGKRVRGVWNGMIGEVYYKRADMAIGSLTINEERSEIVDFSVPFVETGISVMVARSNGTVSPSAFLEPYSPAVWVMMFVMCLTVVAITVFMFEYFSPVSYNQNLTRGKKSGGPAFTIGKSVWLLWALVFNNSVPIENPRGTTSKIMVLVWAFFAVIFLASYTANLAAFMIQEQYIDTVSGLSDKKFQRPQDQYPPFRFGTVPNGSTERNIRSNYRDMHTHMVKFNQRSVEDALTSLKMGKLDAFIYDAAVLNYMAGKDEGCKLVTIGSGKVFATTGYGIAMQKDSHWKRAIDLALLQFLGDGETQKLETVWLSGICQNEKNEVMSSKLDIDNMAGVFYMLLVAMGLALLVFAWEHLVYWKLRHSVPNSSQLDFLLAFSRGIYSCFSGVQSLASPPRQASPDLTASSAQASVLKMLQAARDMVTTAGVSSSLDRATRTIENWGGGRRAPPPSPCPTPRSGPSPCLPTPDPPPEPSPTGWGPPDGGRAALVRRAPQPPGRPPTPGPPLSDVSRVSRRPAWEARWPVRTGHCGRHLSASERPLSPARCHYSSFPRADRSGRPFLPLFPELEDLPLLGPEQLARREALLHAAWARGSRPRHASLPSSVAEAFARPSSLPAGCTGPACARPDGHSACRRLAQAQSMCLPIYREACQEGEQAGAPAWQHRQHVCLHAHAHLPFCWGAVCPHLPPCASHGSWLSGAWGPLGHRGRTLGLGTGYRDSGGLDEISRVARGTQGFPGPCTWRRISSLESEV", "assay": "Two electrode voltage-clamp recordings, single concentration, GluN2C", "assay_type": "cell-based", "settings": "pH 6.9"}, "SERT": {"target": "SERT (Homo sapiens (Human), UniProt P31645)", "assay": "Off-target radioligand binding displacement (NIMH PDSP)", "settings": "pH 7.4", "quoted_text": "(§1) Briefly, the compound was submitted to the NIMH PDSP and screened at a single concentration (10 μM) of test article under equilibrium conditions for ability to displace specific radioligands from binding to their targets expressed in mammalian cell membranes in vitro. Each receptor target was assayed in quadruplicate and the % inhibition of radioligand binding at each target determined at pH 7.4. […]"}, "hERG potassium channel": {"target": "hERG potassium channel (Homo sapiens (Human), UniProt Q12809)", "assay": "hERG potassium channel current, automatic patch clamp in HEK cells", "assay_type": "cell-based", "settings": "pH 7.4, patch clamp; read-out: Functional IC50 (μM) hERG", "procedure": "Each test concentration was tested in two or more cells (n≥2). Duration of exposure to each test article concentration was 3 minutes. A positive control (0.5 μM […]) was used to confirm the sensitivity of the cells to an hERG inhibitor."}, "5-HT2B": {"target": "5-HT2B (Homo sapiens (Human), UniProt P41595)", "assay": "biochemical", "quoted_text": "as §1"}, "[2]": {"assay": "Pharmacokinetics in the brain compartment compared to plasma in mice", "assay_type": "in vivo", "settings": "BALB/c, mouse; for Cmax at 1 h: iv", "quoted_text": "Formulation for pharmacokinetic studies used 2% or 10% N′,N′-dimethylacetamide, 10% propylene glycol, and 30% 2-hydroxypropyl-beta-cyclodextrin in water and a dose volume of 10 mL/kg (all routes of administration).\nHere, brain samples were first washed in deionized water to remove blood, the weight recorded, then transferred into fresh 1 mL water, homogenized, and stored at −80° C. until analysis. The ratio of compound in brain (g) compared to blood (mL) was then calculated."}, "5-HT1D": {"target": "5-HT1D (Homo sapiens (Human), UniProt P28221)", "assay": "Off-target radioligand binding displacement (NIMH PDSP)", "settings": "pH 7.4", "quoted_text": "as §1"}, "[3]": {"settings": "% current remaining after 3 μM compound"}},
  "note": "Read-outs that look alike come from different tables or passages of the source.",
  "data": [
    {"smiles": "O=C1CCc2cc(OC[C@H](O)CN3CCN(c4ccc(C(F)(F)F)cc4)CC3)ccc2N1", "note": "[NP10679]", "values": [
      {"measurement": "IC50", "setting": "human GluN1/GluN2B; pH 6.9, read-out: IC50 (μM) pH 6.9", "result": 0.023, "unit": "µM"},
      {"measurement": "IC50", "setting": "human GluN1/GluN2B; pH 6.9, read-out: IC50 value at pH 6.9", "result": 0.023, "unit": "µM"},
      {"measurement": "IC50", "setting": "human GluN1/GluN2B; pH 7.6, read-out: IC50 (μM) pH 7.6", "result": 0.142, "unit": "µM"},
      {"measurement": "IC50", "setting": "human GluN1/GluN2B; pH 7.6, read-out: IC50 value at pH 7.6", "result": 0.142, "unit": "µM"},
      {"measurement": "pH Boost", "setting": "human GluN1/GluN2B; ratio of IC50 at pH 7.6 to IC50 at pH 6.9", "result": 6.2},
      {"measurement": "functional agonism or antagonism at 5-HT2A", "setting": "5-HT2A; pH 7.4", "result": "behaved as an antagonist"},
      {"measurement": "IC50", "setting": "5-HT2A; pH 7.4, antagonism vs 100 nM serotonin", "result": 1.71, "unit": "µM"},
      {"measurement": "off-target inhibition against GluN2D", "setting": "GluN2D; 3 μM", "result": "no noticeable off-target inhibition"},
      {"measurement": "GluN2D % residual", "setting": "GluN2D; [3]", "result": "98.3 (pH 6.9) %"},
      {"measurement": "inhibition of CYP2D6", "setting": "CYP2D6", "result": "did not inhibit"},
      {"measurement": "bound to mouse plasma proteins", "setting": "[1]", "result": 98.2, "unit": "%"},
      {"measurement": "off-target inhibition against GluN2C", "setting": "GluN2C; 3 μM", "result": "no noticeable off-target inhibition"},
      {"measurement": "GluN2C % residual", "setting": "GluN2C; [3]", "result": "100.1 (pH 6.9) %"},
      {"measurement": "Ki", "setting": "SERT", "result": 0.135, "unit": "µM"},
      {"measurement": "IC50", "setting": "hERG potassium channel", "result": 0.617, "unit": "µM"},
      {"measurement": "Ki", "setting": "5-HT2B", "result": 1920, "unit": "nM"},
      {"measurement": "concentration at 1 h", "setting": "[2]; brain, intraperitoneal, 5 mg/kg, 5 mg/kg IP, 1 hour post dosing, read-out: estimated free drug concentration in the brain", "result": "60 to 134", "unit": "nM"},
      {"measurement": "concentration at 2 h", "setting": "[2]; brain, intraperitoneal, 5 mg/kg, 5 mg/kg IP, 2 hours post dosing, read-out: estimated free drug concentration in the brain", "result": "51 to 103", "unit": "nM"},
      {"measurement": "concentration at 4 h", "setting": "[2]; brain, intraperitoneal, 5 mg/kg, 5 mg/kg IP, 4 hours post dosing, read-out: estimated free drug concentration in the brain", "result": "33 to 66", "unit": "nM"},
      {"measurement": "concentration at 8 h", "setting": "[2]; brain, intraperitoneal, 5 mg/kg, 5 mg/kg IP, 8 hours post dosing, read-out: estimated free drug concentration in the brain", "result": "28 to 56", "unit": "nM"},
      {"measurement": "concentration at 1 h", "setting": "[2]; brain, intravenous, 3 mg/kg, 3 mg/kg IV, Study 1, 1 hour, read-out: Brain Conc.", "result": 1740, "unit": "ng/g"},
      {"measurement": "concentration at 1 h", "setting": "[2]; brain, intravenous, 3 mg/kg, 3 mg/kg IV, Study 2A (2% DMA formulation), 1 hour, read-out: Brain Conc.", "result": 1420, "unit": "ng/g"},
      {"measurement": "concentration at 1 h", "setting": "[2]; brain, intravenous, 3 mg/kg, 3 mg/kg IV, Study 2B, 1 hour, read-out: Brain Conc.", "result": 2100, "unit": "ng/g"},
      {"measurement": "Cmax at 1 h", "setting": "[2]; plasma, 3 mg/kg, 3 mg/kg IV, Study 1, 1 hour", "result": 2300, "unit": "ng/mL"},
      {"measurement": "Cmax at 1 h", "setting": "[2]; plasma, 3 mg/kg, 3 mg/kg IV, Study 2A (2% DMA formulation), 1 hour", "result": 600, "unit": "ng/mL"},
      {"measurement": "Cmax at 1 h", "setting": "[2]; plasma, 3 mg/kg, 3 mg/kg IV, Study 2B, 1 hour", "result": 817, "unit": "ng/mL"},
      {"measurement": "Tmax", "setting": "[2]; plasma, 3 mg/kg IV, Study 1", "result": 1, "unit": "h"},
      {"measurement": "Ki", "setting": "5-HT1D", "result": 2.29, "unit": "µM"}
    ]}
  ]
}
